Source: patent US9321809B2, “Macrocyclic compounds for suppressing replication of hepatitis C virus” (Ginkgo Pharma Co., Ltd., priority 2012, dated 2016)
Read-outs that look alike come from different tables or passages of the source.

How the values were obtained:
[1] = liver microsome metabolity assay (PK Assays); format: in vitro ADME, human; conditions: pH 7.4
Method: The following liver microsome metabolity assays validated the PK properties of compounds of Formula (I). 1. Buffer A: 1.0 L 0.1 M potassium phosphate monobasic buffer (including 1.0 mM EDTA); Buffer B: 1.0 L 0.1 M dipotassium phosphate buffer (including 1.0 mM EDTA); Buffer C: 0.1 M potassium phosphate buffer (including 1.0 mM EDTA), pH 7.4, add Buffer A to 700 ml of Buffer B until pH is 7.4. 2. Drug solution: 500 μM solution: a 10 μL (10 mM) DMSO was added to 190 μL ACN; 1.5 μM solution (dissolved in human microsome and the final concentration of microsome is 0.75 mg/mL): 1.5 μL (500 μM) of drug solution and 18.75 μL of human microsome (20 mg/mL) were added to 479.75 uL of Buffer C. 3. NADPH solution (6 mM, dissolved in Buffer C). 4. 30 µL of drug solution (1.5 μM) was added to a 96-well plate, setting locations for different time points; Preincubated for 10 minutes at 37° C. 5. […] of NADPH (6 mM) was added to the location for 45-min time point; and timing started. 6. At 30, 15 and 5 min, […] of NADPH (6 mM) was added to each corresponding locations, respectively. 7. After the reaction was completed mins), 135 μL acetonitrile was added to the locations for all different time points; 15 µL of NADPH (6 mM) was added to the location for 0 min time point. 8. Centrifugated at 3220 g for 10 min. 9. 50 μL of supernatant was collected and mixed with 50 μL, of ultrapure water. Samples were sent to LC/MS for analysis.

[2] = test system: HCV replicon-containing huh-7 cells (replicon 1b); assay: HCV Replicon Assay (luciferase readout); format: cell-based; conditions: Hepatitis C virus; HCV replicon 1b in huh-7 cells, 48 h incubation, 1% DMSO, luciferase signal; read-out: EC50 (EC 50 on replicon 1b)
Method: Compounds of formuala (I) are tested for the ability to inhibit viral replication of the Hepatitis C viruses by the following in vitro assays.
DMEM (Life Technologies #41965-039) was supplemented with 10% FBS, 2 mM L-glutamine (Life Technologies #25030-024), penicillin (100 units/ml)/streptomycin (100 micrograms/ml) (Life Technologies #15140-114), 1× non-essential amino acids (Life Technologies #11140-035).
Complete media was prepared by mixing FBS, DMEM media with Geneticin (G418). The compete media was preincubated at 37° C. in a CO2 incubator. Then, HCV replicon-containing huh-7 cells (V. Lohmann et. al. Science, 285, (1999)110-113) was taken out from 37° C. incubator. The residual medium was absorbed, and the cells were washed with PBS. After washing fluid was removed, 1 ml 0.25% trypsin/0.02% EDTA solution. The cells were washed by the above trypsin/EDTA solution to make sure that each cell was cleaned. After the trypsin/EDTA solution was absorbed, the mixture was incubated at 37° C. in a CO2 incubator for 3-5 minutes. Morphological changes were observed by inverted microscope, till the cells were detached from the wall of container completely.
3 ml of complete media was added to make the cells to suspend. The cells are counted with hematometer. Appropriate volumes of the complete media was added to adjust the cell density to 100,000/ml. Cells were plated with 100 μl of suspension at 10,000/well of 96 well plate. Plates were placed into 37° C. 5% CO2 incubator for 24 h.
Preparation of Drug Solution:
Drugs were diluted under aseptic conditions.
Stock solutions may be prepared before the assay, which means that the test compounds are dissolved in 100% DMSO to afford a final concentration of 2 mM. Before the 96 well culture was completed, the stock solution was diluted with culter media to 100 fold of the final concentration (100× solution).
96-well plates were taken out from 37° C. CO2 incubator and morphological changes were observed by inverted microscope. In a ventilator, 1 μl of 100× drug solution was added to wells of 96 well plate until the final concentration of DMSO in the mixture is 1%. The plates were incubated at 37° C. in a CO2 environment for 48 h. 30 μl of Stead-G1® Luciferase Assay System (bought from Promega) was added to each well of 96 well plates and each plate is shaken in a plate shaker for 5 minutes to ensure cells cleavaged completely. The fluorescence signal was quantitated in a Perkin-Elmer plate reader (Envision) and integral time was setted to be 2 second. The following data were achieved after recording and analyzing the data.

Compound | half-life at 1 µM ([1]; human, microsomes) | EC50 [2] | half-life at 1 µM ([1]; human liver microsomes, human microsome 0.75 mg/mL, 1.5 μM drug solution, NADPH, 37° C., time points 0-45 min, LC/MS, read-out: t1/2)
C=C[C@@H]1C[C@]1(NC(=O)[C@@H]1C[C@@H]2CN1C(=O)[C@H](C(C)(C)C)NC(=O)[C@@H](NC(=O)OC(C)(C)C)COC/C=C/c1cccc3c1CN(C3)C(=O)O2)C(=O)NS(=O)(=O)C1CC1 [Compound IIa-1, tert-butyl N-[(1R,12E,17S,20S,23S)-20-tert-butyl-23-{[(1R,2S)-1-[(cyclopropanesulfonyl)carbamoyl]-2-ethenylcyclopropyl]carbamoyl}-3,18,21-trioxo-2,15-dioxa-4,19,22-triazatetracyclo[20.2.1.1^4,7.0^6,11]hexacosa-6,8,10,12-tetraen-17-yl]carbamate] | 3.3 h | < 10 nM | 
C=C[C@@H]1C[C@]1(NC(=O)[C@@H]1C[C@@H]2CN1C(=O)[C@H](C1CCCCC1)NC(=O)[C@@H](NC(=O)OC(C)(C)C)COC/C=C/c1cccc3c1CN(C3)C(=O)O2)C(=O)NS(=O)(=O)C1CC1 [Compound IIa-16, tert-butyl N-[(1R,12E,17S,20S,23S)-20-cyclohexyl-23-{[(1R,2S)-1-[(cyclopropanesulfonyl)carbamoyl]-2-ethenylcyclopropyl]carbamoyl}-3,18,21-trioxo-2,15-dioxa-4,19,22-triazatetracyclo[20.2.1.1^4,7.0^6,11]hexacosa-6,8,10,12-tetraen-17-yl]carbamate] | 3.22 h | < 10 nM | 
C=C[C@@H]1C[C@]1(NC(=O)[C@@H]1C[C@@H]2CN1C(=O)[C@H](C1CCCC1)NC(=O)[C@@H](NC(=O)OC(C)(C)C)COC/C=C/c1cccc3c1CN(C3)C(=O)O2)C(=O)NS(=O)(=O)C1CC1 [Compound IIa-22, tert-butyl N-[(1R,12E,17S,20S,23S)-20-cyclopentyl-23-{[(1R,2S)-1-[(cyclopropanesulfonyl)carbamoyl]-2-ethenylcyclopropyl]carbamoyl}-3,18,21-trioxo-2,15-dioxa-4,19,22-triazatetracyclo[20.2.1.1^4,7.0^6,11]hexacosa-6,8,10,12-tetraen-17-yl]carbamate] |  | < 10 nM | 
C=C[C@@H]1C[C@]1(NC(=O)[C@@H]1C[C@@H]2CN1C(=O)[C@H](C(C)(C)C)NC(=O)[C@@H](NC(=O)OC(C)(C)C)COC/C=C/c1cc3c(nccc3cc1OC)O2)C(=O)NS(=O)(=O)C1CC1 [Compound IIb-1, tert-butyl N-[(3R,5S,8S,11S,15E)-8-tert-butyl-5-{[(1R,2S)-1-[(cyclopropanesulfonyl)carbamoyl]-2-ethenylcyclopropyl]carbamoyl}-18-methoxy-7,10-dioxo-2,13-dioxa-6,9,23-triazatetracyclo[15.6.2.1^3,6.0^20,24]hexacosa-1(23),15,17(25),18,20(24),21-hexaen-11-yl]carbamate] |  | < 10 nM | 
C=C[C@@H]1C[C@]1(NC(=O)[C@@H]1C[C@@H]2CN1C(=O)[C@H](C(C)(C)C)NC(=O)[C@@H](NC(=O)OC(C)(C)C)COCCCc1cc3c(nccc3cc1OC)O2)C(=O)NS(=O)(=O)C1CC1 [Compound IIb-2, tert-butyl N-[(3R,5S,8S,11S)-8-tert-butyl-5-{[(1R,2S)-1-[(cyclopropanesulfonyl)carbamoyl]-2-ethenylcyclopropyl]carbamoyl}-18-methoxy-7,10-dioxo-2,13-dioxa-6,9,23-triazatetracyclo[15.6.2.1^3,6.0^20,24]hexacosa-1(23),17(25),18,20(24),21-pentaen-11-yl]carbamate] |  | < 10 nM | 
C=C[C@@H]1C[C@]1(NC(=O)[C@@H]1C[C@@H]2CN1C(=O)[C@H](C1CCCCC1)NC(=O)[C@@H](NC(=O)OC(C)(C)C)COC/C=C/c1cc3c(nccc3cc1OC)O2)C(=O)NS(=O)(=O)C1CC1 [Compound IIb-3, tert-butyl N-[(3R,5S,8S,11S,15E)-8-cyclohexyl-5-{[(1R,2S)-1-[(cyclopropanesulfonyl)carbamoyl]-2-ethenylcyclopropyl]carbamoyl}-18-methoxy-7,10-dioxo-2,13-dioxa-6,9,23-triazatetracyclo[15.6.2.1^3,6.0^20,24]hexacosa-1(23),15,17(25),18,20(24),21-hexaen-11-yl]carbamate] | 3.83 h | < 10 nM | 
C=C[C@@H]1C[C@]1(NC(=O)[C@@H]1C[C@@H]2CN1C(=O)[C@H](C1CCCCC1)NC(=O)[C@@H](NC(=O)OC(C)(C)C)COCCCc1cc3c(nccc3cc1OC)O2)C(=O)NS(=O)(=O)C1CC1 [Compound IIb-4, tert-butyl N-[(3R,5S,8S,11S)-8-cyclohexyl-5-{[(1R,2S)-1-[(cyclopropanesulfonyl)carbamoyl]-2-ethenylcyclopropyl]carbamoyl}-18-methoxy-7,10-dioxo-2,13-dioxa-6,9,23-triazatetracyclo[15.6.2.1^3,6.0^20,24]hexacosa-1(23),17(25),18,20(24),21-pentaen-11-yl]carbamate] |  | < 10 nM | 
CC[C@@H]1C[C@]1(NC(=O)[C@@H]1C[C@@H]2CN1C(=O)[C@H](C1CCCCC1)NC(=O)[C@@H](NC(=O)OC(C)(C)C)COC/C=C/c1cc3c(nccc3cc1OC)O2)C(=O)NS(=O)(=O)C1CC1 [Compound IIb-5, tert-butyl N-[(3R,5S,8S,11S,15E)-8-cyclohexyl-5-{[(1R,2R)-1-[(cyclopropanesulfonyl)carbamoyl]-2-ethylcyclopropyl]carbamoyl}-18-methoxy-7,10-dioxo-2,13-dioxa-6,9,23-triazatetracyclo[15.6.2.1^3,6.0^20,24]hexacosa-1(23),15,17(25),18,20(24),21-hexaen-11-yl]carbamate] |  | 10 to 50 nM | 
C=C[C@@H]1C[C@]1(NC(=O)[C@@H]1C[C@@H]2CN1C(=O)[C@H](C1CCCCC1)NC(=O)[C@@H](NC(=O)OC(C)(C)C)COC/C=C/c1cc3c(nccc3cc1OC)O2)C(=O)O [Compound IIb-7, tert-butyl N-[(3R,5S,8S,11S,15E)-8-cyclohexyl-5-{[(1R,2S)-1-hydroxycarbonyl-2-ethenylcyclopropyl]carbamoyl}-18-methoxy-7,10-dioxo-2,13-dioxa-6,9,23-triazatetracyclo[15.6.2.13,6.020,24]hexacosa-1(23),15,17(25),18,20(24),21-hexaen-11-yl]carbamate] |  | 500 to 20000 nM | 
CC[C@@H]1C[C@]1(NC(=O)[C@@H]1C[C@@H]2CN1C(=O)[C@H](C(C)(C)C)NC(=O)OCC(C)(C)CCCCc1cccc3c1CN(C3)C(=O)O2)C(=O)NS(=O)(=O)C1CC1 [MK7009, reference compound] |  | < 10 nM | 0.433 h
